The target of the assay is T1, nuclear factor-kappa B (NF-kB)-inducing kinase (NIK) (Homo sapiens, UniProt Q99558).
T1 construct: made in house; host or cells: baculovirus-infected insect cells
T1 sequence (Q99558 whole entry): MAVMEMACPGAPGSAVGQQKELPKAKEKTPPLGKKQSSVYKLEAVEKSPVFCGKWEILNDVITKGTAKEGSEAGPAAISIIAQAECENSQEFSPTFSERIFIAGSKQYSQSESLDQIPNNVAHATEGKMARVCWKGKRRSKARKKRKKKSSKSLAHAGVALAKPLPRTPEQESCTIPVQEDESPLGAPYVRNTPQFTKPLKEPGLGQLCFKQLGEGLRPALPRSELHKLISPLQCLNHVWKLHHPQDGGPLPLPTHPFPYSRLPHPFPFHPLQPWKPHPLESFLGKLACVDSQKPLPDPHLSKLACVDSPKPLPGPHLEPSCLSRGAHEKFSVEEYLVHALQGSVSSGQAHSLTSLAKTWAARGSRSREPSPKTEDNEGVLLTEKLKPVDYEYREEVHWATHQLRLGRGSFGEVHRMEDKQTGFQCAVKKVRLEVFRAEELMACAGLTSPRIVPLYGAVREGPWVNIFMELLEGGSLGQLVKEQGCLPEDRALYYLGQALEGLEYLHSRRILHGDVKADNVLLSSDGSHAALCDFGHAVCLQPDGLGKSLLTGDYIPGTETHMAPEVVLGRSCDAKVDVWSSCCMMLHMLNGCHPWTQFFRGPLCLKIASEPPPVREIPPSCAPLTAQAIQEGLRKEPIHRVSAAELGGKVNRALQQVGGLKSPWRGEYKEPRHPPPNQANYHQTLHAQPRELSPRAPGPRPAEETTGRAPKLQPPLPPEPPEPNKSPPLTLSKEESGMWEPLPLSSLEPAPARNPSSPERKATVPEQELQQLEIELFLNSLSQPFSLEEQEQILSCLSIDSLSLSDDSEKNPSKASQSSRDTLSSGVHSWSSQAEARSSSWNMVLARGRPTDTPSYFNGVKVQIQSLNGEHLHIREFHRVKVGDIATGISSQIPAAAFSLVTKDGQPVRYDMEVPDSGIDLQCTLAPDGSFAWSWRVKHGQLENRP
Kind of assay: NIK Enzyme Inhibition Assay (Transcreener ADP assay). The class given is biochemical. The settings on record: purified NIK 0.2-1 nM, 10 uM ATP, fluorescence polarization, Morrison's quadratic equation; read-out: inhibitory value (Ki) for NIK. (In general: Polarisation of emitted light reports the rotation of a fluorescent probe.)
Take `Cc1cc(C(C)(O)C#Cc2ccc3nc(OCC4COC(C)(C)O4)n(-c4ccnc(N)n4)c3c2)no1` (centres unmarked) [Example T1.1-70, 4-[3-(2-aminopyrimidin-4-yl)-2-[(2,2-dimethyl-1,3-dioxolan-4-yl)methoxy]benzimidazol-5-yl]-2-(5-methylisoxazol-3-yl)but-3-yn-2-ol]: the Ki (in general, the dissociation constant of the complex between target and ligand, obtained from inhibition or displacement) worked out at 9 nM. The result for `Cc1nc([C@](C)(O)C#Cc2ccc3c(C(=O)N4CCCCC4)nn(-c4nc(N)ncc4Cl)c3c2)no1` [Example T1.1-71, [1-(2-amino-5-chloro-pyrimidin-4-yl)-6-[(3R)-3-hydroxy-3-(5-methyl-1,2,4-oxadiazol-3-yl)but-1-ynyl]indazol-3-yl]-(1-piperidyl)methanone] reads 10 nM.

With `CC(O)(C#Cc1ccc2nc(OC3COC3)n(-c3ccnc(N)n3)c2c1)c1ncccn1` (centres unmarked) [Example T1.1-72, 4-[3-(2-aminopyrimidin-4-yl)-2-(oxetan-3-yloxy)benzimidazol-5-yl]-2-pyrimidin-2-yl-but-3-yn-2-ol], the Ki turned out to be 12 nM. As for `Cc1nn(-c2ccnc(N)n2)c2cc(C#CC(C)(O)c3cc[nH]n3)ccc12` (centres unmarked) [Example T1.1-73, 4-[1-(2-aminopyrimidin-4-yl)-3-methyl-indazol-6-yl]-2-(1H-pyrazol-3-yl)but-3-yn-2-ol], the Ki is 12 nM.

`CC1CN(C(=O)c2nn(-c3ccnc(N)n3)c3cc(C#CC(C)(O)c4ncccn4)ccc23)CC(C)O1` (centres unmarked) [Example T1.1-74, [1-(2-aminopyrimidin-4-yl)-6-(3-hydroxy-3-pyrimidin-2-yl-but-1-ynyl)indazol-3-yl]-(2,6-dimethylmorpholin-4-yl) methanone]: the Ki was determined as 13 nM.

Turning to `CC(O)(C#Cc1ccc2c(C(=O)N3CCOCC3)nn(-c3ccnc(N)n3)c2c1)CF` (centres unmarked) [Example T1.1-75, [1-(2-aminopyrimidin-4-yl)-6-(4-fluoro-3-hydroxy-3-methyl-but-1-ynyl)indazol-3-yl]-morpholino-methanone], the Ki was 14 nM.

For the compound `Cc1nn(-c2ccnc(N)n2)c2cc(C#CC(C)(O)c3cocn3)ccc12` (centres unmarked) [Example T1.1-76, 4-[1-(2-aminopyrimidin-4-yl)-3-methyl-indazol-6-yl]-2-oxazol-4-yl-but-3-yn-2-ol], the inhibition constant Ki stood at 16 nM. Regarding `CC(O)(C#Cc1ccc2c(CN3CCOCC3)nn(-c3ccnc(N)n3)c2c1)c1ncccn1` (centres unmarked) [Example T1.1-78, 4-[1-(2-aminopyrimidin-4-yl)-3-(morpholinomethyl)indazol-6-yl]-2-pyrimidin-2-yl-but-3-yn-2-ol], the Ki is 20 nM. The result for `Cc1cc(C(C)(O)C#Cc2ccc3c(C(NC4CCCC4)C4CC4)nn(-c4ccnc(N)n4)c3c2)no1` (centres unmarked) [Example T1.1-79, 4-[1-(2-aminopyrimidin-4-yl)-3-[(cyclopentylamino)-cyclopropyl-methyl]indazol-6-yl]-2-(5-methyl-isoxazol-3-yl)but-3-yn-2-ol] reads 20 nM. `Cc1nc([C@](C)(O)C#Cc2ccc3c(c2)n(-c2ccnc(N)n2)c(=O)n3CC2CC2)no1` [Example T1.1-81, 3-(2-aminopyrimidin-4-yl)-1-(cyclopropylmethyl)-5-[(3R)-3-hydroxy-3-(5-methyl-1,2,4-oxadiazol-3-yl)but-1-ynyl] benzimidazol-2-one]: the Ki worked out at 24 nM. For the compound `Cc1noc(C(C)(O)C#Cc2ccc3c(C(=O)N(C)C)nn(-c4ccnc(N)n4)c3c2)n1` (centres unmarked) [Example T1.1-82, 1-(2-aminopyrimidin-4-yl)-6-[3-hydroxy-3-(3-methyl-1,2,4-oxadiazol-5-yl)but-1-ynyl]-N,N-dimethyl-indazole-3-carboxamide], the Ki was determined as 25 nM.

With `Cn1cnc(C(C)(O)C#Cc2ccc3c(C(=O)N4CCOCC4)nn(-c4ccnc(N)n4)c3c2)n1` (centres unmarked) [Example T1.1-83, [1-(2-aminopyrimidin-4-yl)-6-[3-hydroxy-3-(1-methyl-1,2,4-triazol-3-yl)but-1-ynyl]indazol-3-yl]-morpholino-methanone], the Ki stood at 25 nM. As to `COCc1cc(C(C)(O)C#Cc2ccc3c(C(=O)N4CCOCC4)nn(-c4ccnc(N)n4)c3c2)no1` (centres unmarked) [Example T1.1-84, [1-(2-aminopyrimidin-4-yl)-6-[3-hydroxy-3-[5-(methoxymethyl)isoxazol-3-yl]but-1-ynyl]indazol-3-yl]-morpholino-methanone], the Ki worked out at 27 nM. The result for `Cc1cc(C(C)(O)C#Cc2ccc3c(C(NC4CCCC4)C4CC4)nn(-c4ccnc(N)n4)c3c2)no1` (centres unmarked) [Example T1.1-85, 4-[1-(2-aminopyrimidin-4-yl)-3-[(cyclopentylamino)-cyclopropyl-methyl]indazol-6-yl]-2-(5-methyl-isoxazol-3-yl)but-3-yn-2-ol] reads 27 nM.

For `Nc1nccc(-n2nc(C(=O)N3CCOCC3)c3ccc(C#CC(O)(CF)CF)cc32)n1` [Example T1.1-86, [1-(2-aminopyrimidin-4-yl)-6-[4-fluoro-3-(fluoromethyl)-3-hydroxy-but-1-ynyl]indazol-3-yl]-morpholino-methanone], the inhibitory constant (Ki) was 31 nM. Consider `Cn1cc(-c2cnc(N)nc2-n2ncc3ccc(C#CC(C)(C)O)cc32)cn1` [Example T1.1-87, 4-[1-[2-amino-5-(1-methyl-pyrazol-4-yl)pyrimidin-4-yl]indazol-6-yl]-2-methyl-but-3-yn-2-ol], for which the Ki is 39 nM.

As to `Cc1cc([C@@](C)(O)C#Cc2ccc3c(C(=O)N4CCOCC4)nn(-c4ccnc(N)n4)c3c2)no1` [Example T1.1-88, [1-(2-aminopyrimidin-4-yl)-6-[(3S)-3-hydroxy-3-(5-methylisoxazol-3-yl)but-1-ynyl]indazol-3-yl]-morpholino-methanone], the Ki came out at 46 nM. With `CN1CCN(C(=O)c2nn(-c3ccnc(N)n3)c3cc(C#CC(C)(O)c4ncccn4)ccc23)CC1` (centres unmarked) [Example T1.1-89, [1-(2-aminopyrimidin-4-yl)-6-(3-hydroxy-3-pyrimidin-2-yl-but-1-ynyl)indazol-3-yl]-(4-methylpiperazin-1-yl)methanone], the Ki came out at 52 nM. The result for `Cc1nn(-c2ccnc(N)n2)c2cc(C#CC(C)(O)c3nccn3C)ccc12` (centres unmarked) [Example T1.1-90, 4-[1-(2-aminopyrimidin-4-yl)-3-methyl-indazol-6-yl]-2-(1-methyl-imidazol-2-yl)but-3-yn-2-ol] reads 54 nM.

As to `Cc1cnc(C(C)(O)C#Cc2ccc3c(C)nn(-c4ccnc(N)n4)c3c2)cn1` (centres unmarked) [Example T1.1-91, 4-[1-(2-aminopyrimidin-4-yl)-3-methyl-indazol-6-yl]-2-(5-methyl-pyrazin-2-yl)but-3-yn-2-ol], the Ki was 69 nM. The result for `CC(C)(O)C#Cc1ccc2cnn(-c3nc(N)ncc3-c3cn[nH]c3)c2c1` [Example T1.1-92, 4-[1-[2-amino-5-(1H-pyrazol-4-yl)pyrimidin-4-yl]indazol-6-yl]-2-methyl-but-3-yn-2-ol] reads 70 nM; that for `Cc1cc(-n2nc(C)c3ccc(C#C[C@@](C)(O)c4noc(C)n4)cc32)nc(N)n1` [Example T1.1-93, (2R)-4-[1-(2-amino-6-methyl-pyrimidin-4-yl)-3-methyl-indazol-6-yl]-2-(5-methyl-1,2,4-oxadiazol-3-yl)but-3-yn-2-ol], 78 nM; that for `Cc1cc(-n2nc(C)c3ccc(C#CC(C)(O)c4ncccn4)cc32)nc(N)n1` (centres unmarked) [Example T1.1-94, 4-[1-(2-amino-6-methyl-pyrimidin-4-yl)-3-methyl-indazol-6-yl]-2-pyrimidin-2-yl-but-3-yn-2-ol], 85 nM.

For the origin of these results see patent US8901313B2, “6,5-heterocyclic propargylic alcohol compounds and uses therefor” (Genentech, Inc., priority 2011, dated 2014).
